Data taken from patent EP0468434B1, “Novel piperidyl ethers and thioethers as inhibitors of cholesterol biosynthesis” (MERRELL DOW PHARMACEUTICALS INC., priority 1990, dated 1992).

Biological target: T1, oxidosqualene cyclase (Rattus norvegicus, UniProt P48450)
T1 construct: Microsomes, prepared by ultracentrifugation of homogenates of rat liver; from tissue; host or cells: rat liver microsomes plus high speed supernatant fraction
T1 sequence (P48450 1-733): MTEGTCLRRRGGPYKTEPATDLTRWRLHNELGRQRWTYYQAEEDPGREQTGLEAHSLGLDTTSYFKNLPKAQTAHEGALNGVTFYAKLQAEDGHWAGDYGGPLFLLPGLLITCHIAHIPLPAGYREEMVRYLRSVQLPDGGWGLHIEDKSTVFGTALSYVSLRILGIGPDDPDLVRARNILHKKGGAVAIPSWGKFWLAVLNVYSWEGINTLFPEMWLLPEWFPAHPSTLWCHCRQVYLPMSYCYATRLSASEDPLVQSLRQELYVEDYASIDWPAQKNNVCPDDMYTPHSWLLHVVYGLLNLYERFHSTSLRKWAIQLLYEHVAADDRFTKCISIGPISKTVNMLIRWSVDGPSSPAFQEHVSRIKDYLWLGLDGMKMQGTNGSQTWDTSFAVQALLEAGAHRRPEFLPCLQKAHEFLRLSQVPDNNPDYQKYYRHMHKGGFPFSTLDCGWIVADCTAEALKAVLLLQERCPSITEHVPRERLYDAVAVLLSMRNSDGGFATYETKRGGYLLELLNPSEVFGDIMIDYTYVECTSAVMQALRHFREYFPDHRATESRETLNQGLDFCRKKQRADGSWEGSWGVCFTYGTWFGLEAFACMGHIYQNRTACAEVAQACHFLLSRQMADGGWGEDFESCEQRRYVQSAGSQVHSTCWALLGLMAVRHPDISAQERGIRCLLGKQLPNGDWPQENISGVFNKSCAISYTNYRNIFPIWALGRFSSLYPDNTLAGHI
Assay: Inhibition of cholesterol biosynthesis: oxidosqualene cyclase in rat liver microsomes (TLC or HPLC assay)
Type: biochemical
Conditions: 37°C, 45 minutes, 60µM ³H-squalene, 2.0mM NADPH, 0.01mM FAD, compounds tested at 0.0 to 100.0µM, read-out: Cyclase, IC₅₀
Experimental: The following example illustrates the utility of compounds of formula (1) in inhibiting cholesterol biosynthesis. This example is understood to be illustrative only and is not intended to limit the scope of the present invention in any way. Microsomes, prepared by ultracentrifugation of homogenates of rat liver, are incubated at 37°C for 45 muinutes in the presence of 60µM ³H-squalene, 2.0mM NADPH, 0.01mM FAD, and the high speed supernatant fraction from the microsomal preparation. Blanks, in which NADPH has been omitted, are run simultaneously with the test compounds. Compounds are tested at concentrations of 0.0 to 100.0µM.
• a) TLC Assay: Following incubation, the samples are saponified, standards are added to each sample, and then the reaction products are extracted into hexane. […] Spots containing the reaction products are scraped from the TLC plates and counted for ³H-radioactivity in a scintillation counter. An IC₅₀ for squalene epoxidase and oxidosqualene cyclase is calculated. • b) HPLC Assay: Following incubation, reactions are stopped by the addition of chloroform:methanol, standards are added, then reaction products and standards are extracted into chloroform. […] Chromatographic peaks containing reaction products are monitored for ³H- radioactivity with a flow-through scintillation counter connected in series with the HPLC column. […]

CCSCCN1CCCCC1 [Compound E, 2-(1-piperidyl)ethyl ethyl sulfide]
IC50: > 100 µM

CC(C)CCSCCCCCN1CCCCC1 [Compound A]
IC50: 24 µM
